From US20180140578A1, “METHODS AND COMPOSITIONS FOR THE DIAGNOSIS AND SELECTIVE TREATMENT OF CANCER” (Board of Regents of the University of Texas System, priority 2016, published 2018)
Where two headings read alike, the source gives them in different places.

Tests used:
[1] = system: TRIM27 mRNA and RBM3 mRNA; assay: PCR validation of splicing changes; type: cell-based, human
Experimental: (§1) RNAs isolated from indisulam or siRNA treated cells were first treated with Turbo DNase (Life Technologies) to remove contaminating genomic DNA. After RNA cleanup with Quick-RNA MiniPrep kit (Zymo Research), 500 ng of total RNAs was converted into cDNAs with Multiscribe reverse transcriptase (Life Technologies). Exon skipping in TRIM27 was visualized by PCR amplification with 5′-[…]-3′ (SEQ ID NO: 3) and 5′-[…]-3′ (SEQ ID NO: 4) from cDNAs. […] Relative RNA levels were calculated based on 2^−ct method using Cyclophilin mRNA for normalization. The following primers were used for quantification of mRNA levels: […]

[2] = biological target: T1, RBM39-AcGFP (Homo sapiens, UniProt Q14498+Q66K64); assay: CRISPR inactivation of DDB1, DDA1, DCAF15; RBM39-AcGFP by flow cytometry; type: cell-based; settings: H1155 RBM39-AcGFP cells
T1 construct: Homology directed repair facilitates tagging of endogenous RBM39 by AID, 3xFLAG, AcGFP, or Nanoluciferase; endogenous in cells; host or cells: H1155 RBM39-AcGFP knock-in cells
Experimental: (§2) Two independent guide RNAs targeting DDB1, DDA1, DCAF15 were cloned into PX459. 0.2 million H1155 RBM39-AcGFP cells were transfected with PX459 sgRNA constructs and selected with 2 μg/ml puromycin to enrich for transfected cells. […] Cells were then trypsinized and the expression of RBM39-AGFP was quantified with flow cytometry. H1155 cells transfected with DCAF15 guide RNA were sparsely plated on 10 cm^2 plates and clones were isolated. Genomic DNA sequence flanking the cut site were amplified and sequenced to identify DCAF15−/− clones.

[3] = system: non-small cell lung cancer cell lines; assay: IC50 assay, U2AF1 S34F vs wild type NSCLC cell lines; type: cell-based, human; settings: four S34F vs sixty-six wild type lines; p=0.01
Experimental: (§3) Cells were plated at ˜15% confluence in a media comprising 5% concentration of fetal bovine serum supplemented with RPMI, which included 2 mM L-Glutamine in a 96 well dish. […] Following three days of incubation in a 5% CO2 incubator, the total ATP in each well was quantified using Cell Titer Glo (Promega). […] The solid lines represent the medians.

[4] = system: RBM39 mRNA; assay: qPCR quantification of RBM39 mRNA; type: cell-based, human; settings: HCT-116 cells after indisulam treatment
Experimental: as §1
For measurement of RBM39 mRNA levels, the following primers were used: […]

[5] = system: H650; assay: IC50 assay, NSCLC cell lines (Cell Titer Glo, total ATP); type: cell-based, human; settings: U2AF1 WT (listed twice)
Experimental: as §3

[6] = system: H2073; assay: as above; type: cell-based, human
Experimental: as §3

[7] = biological target: T2, RBM39-Nluc (Homo sapiens, UniProt Q14498+Q66K64); assay: RBM39-Nluc degradation by Nano-Glo luciferase assay; type: cell-based; settings: H1155 RBM39-Nluc cells; read-out: decrease in RBM39-Nluc activity (IC50)
T2 construct: Homology directed repair facilitates tagging of endogenous RBM39 by AID, 3xFLAG, AcGFP, or Nanoluciferase; endogenous in cells; host or cells: H1155 RBM39-Nluc knock-in cells
Experimental: NanoLuc was knocked-in to the 3-prime end of the RBM39 gene using the procedure described above yielding H1155 RBM39-Nluc cells. […] Luminescence was recorded by EnVision multimode plate reader (Perkin Elmer). IC50 was determined with GraphPad Prism using baseline correction (by normalizing to DMSO control), the asymmetric (five parameter) equation and least squares fit.

[8] = system: H3122; assay: IC50 assay, NSCLC cell lines (Cell Titer Glo, total ATP); type: cell-based; settings: Homo sapiens
Experimental: as §3

[9] = system: H2342; assay: as above; type: cell-based; settings: Homo sapiens
Experimental: as §3

[10] = system: A549; assay: as above; type: cell-based; settings: Homo sapiens
Experimental: as §3

[11] = system: HCC15; assay: as above; type: cell-based; settings: Homo sapiens
Experimental: as §3

[12] = system: H2882; assay: as above; type: cell-based; settings: Homo sapiens
Experimental: as §3

[13] = system: H292; assay: as above; type: cell-based; settings: Homo sapiens
Experimental: as §3

[14] = system: H1993; assay: as above; type: cell-based; settings: Homo sapiens
Experimental: as §3

[15] = system: H1755; assay: as above; type: cell-based; settings: Homo sapiens
Experimental: as §3

[16] = system: H1819; assay: as above; type: cell-based; settings: Homo sapiens
Experimental: as §3

[17] = system: DCAF15−/− H1155 cells; assay: Cell viability assay, DCAF15−/− cells; type: cell-based, human; settings: at concentrations as high as 50 μM
Experimental: 12-point dose responses were performed on 96-well assay plates with cell plating (1500-4000 cell per well) on day 1, compound addition on day 2, and survival measurement on day 5. Compounds were diluted in DMSO before adding to the cells. Final DMSO concentration was 0.5%. Cell survival assay was performed using CellTiter-Glo Luminescent Cell Viability Assay kit (Promega) that measures cellular ATP content. Luminescence was recorded by EnVison multimode plate reader (Perkin Elmer). IC50 was determined with GraphPad Prism using baseline correction (by normalizing to DMSO control), the asymmetric (five parameter) equation and least squares fit.
as §2

[18] = read-out: Indisulam IC50, U2AF1 WT
[19] = read-out: Indisulam IC50 (log 10) (converted), U2AF1 WT

Structure (SMILES): NS(=O)(=O)c1ccc(S(=O)(=O)Nc2cccc3c(Cl)c[nH]c23)cc1 [Indisulam, indisulam]
- splicing of TRIM27 mRNA (RT-PCR) [1]: dose-dependent exon skipping
- splicing of RBM3 mRNA (RT-PCR) ([1]; indisulam dose-dependent): intron retention
- RBM39-AcGFP after indisulam treatment [2]: degraded
- sensitivity of U2AF1 S34F vs U2AF1 wild type NSCLC cell lines [3]: more sensitive
- RBM39 mRNA [4]: no dose dependent decrease
- Indisulam IC50 (log 10) ([5]; H650): −4.839 (log 10) (M)
- IC50 ([5]; Homo sapiens, NCI-H650, read-out: Indisulam IC50 (log 10), H650 (converted)): 13.6 µM
- IC50 ([5]; Homo sapiens, NCI-H650, read-out: Indisulam IC50, H650): 13.6 µM
- IC50 ([5]; read-out: Indisulam IC50, H650): 14.5 µM
- IC50 ([6]; Homo sapiens, NCI-H2073, read-out: Indisulam IC50 (log 10) (converted), U2AF1 WT): 2.57 µM
- IC50 [6, 18]: 2.57 µM
- DC50 [7]: 0.36 µM
- IC50 ([8]; NCI-H3122, read-out: Indisulam IC50 (log 10) (converted), U2AF1 WT): 70.1 µM
- IC50 ([8]; NCI-H3122, read-out: Indisulam IC50, U2AF1 WT): 70.1 µM
- IC50 ([9]; NCI-H2342, read-out: Indisulam IC50 (log 10) (converted), U2AF1 WT): 58.6 µM
- IC50 ([9]; NCI-H2342, read-out: Indisulam IC50, U2AF1 WT): 58.6 µM
- IC50 [10, 19]: 46.6 µM
- IC50 [10, 18]: 46.6 µM
- IC50 [11, 19]: 6.32 µM
- IC50 [11, 18]: 6.32 µM
- IC50 ([12]; NCI-H2882, read-out: Indisulam IC50 (log 10) (converted), U2AF1 WT): 12.2 µM
- IC50 ([12]; NCI-H2882, read-out: Indisulam IC50, U2AF1 WT): 12.2 µM
- IC50 ([13]; NCI-H292, read-out: Indisulam IC50 (log 10) (converted), U2AF1 WT): 1.12 µM
- IC50 ([13]; NCI-H292, read-out: Indisulam IC50, U2AF1 WT): 1.12 µM
- IC50 ([14]; NCI-H1993, read-out: Indisulam IC50 (log 10) (converted), U2AF1 WT): 1.42 µM
- IC50 ([14]; NCI-H1993, read-out: Indisulam IC50, U2AF1 WT): 1.42 µM
- IC50 ([15]; NCI-H1755, read-out: Indisulam IC50 (log 10) (converted), U2AF1 WT): 252 µM
- IC50 ([15]; NCI-H1755, read-out: Indisulam IC50, U2AF1 WT): 252 µM
- IC50 ([16]; NCI-H1819, read-out: Indisulam IC50 (log 10) (converted), U2AF1 WT): 9.6 µM
- IC50 ([16]; NCI-H1819, read-out: Indisulam IC50, U2AF1 WT): 9.6 µM
- sensitivity of DCAF15−/− cells [17]: insensitive
